Data as given in patent publication US6291458A, “Morpholinobenzamide salts” (AstraZeneca AB, priority 1997, dated 2001).
≈ marks a conversion by molar mass, not a printed value. Where two headings read alike, the source gives them in different places.

Experiments:
[1] = Solubility and release rate of the base (background statement); format: physicochemical; details: base form
[2] = Solubility determination in purified water at 25° C.; format: physicochemical; details: HPLC assay
Procedure: Excess of (R)-N-[5-methyl-8-(4-methylpiperazin-1-yl)-1,2,3,4-tetrahydro-2-naphthyl]- 4-morpholinobenzamide or it's corresponding salts was added to purified water. The solution was agitated overnight in a water bath, kept at 25° C. by using a thermostat (Julabo SW and U3, 60 strokes/min). The saturated solution was centrifuged and filtered through a 0.45 .quadrature.m Gelman GHP Acrodisc® 13 filter, diluted and assayed by HPLC.

[3] = rate is different in the stomach and the intestines
[4] = water, salts, read-out: Solubility mg/mL (Solubility in Water at 25° C. for different salts)

Cc1ccc(N2CCN(C)CC2)c2c1CCC(NC(=O)c1ccc(N3CCOCC3)cc1)C2 (racemic) [compound of formula I, N-[5-methyl-8-(4-methylpiperazin-1-yl)-1,2,3,4-tetrahydro-2-naphthyl]-4-morpholinobenzamide]
pH dependence of release rate [1, 3]: pH dependent
release rate [1, 3]: slow
solubility in water ([1]; result in words): extremely low

Cc1ccc(N2CCN(C)CC2)c2c1CC[C@@H](NC(=O)c1ccc(N3CCOCC3)cc1)C2 [Base, (R)-N-[5-Methyl-8-(4-methylpiperazin-1-yl)-1,2,3,4-tetrahydro-2-naphthyl]-4-morpholinobenzamide]
solubility ([2]; water, base, read-out: Solubility in Water): 0.034 mg/mL (≈ 75.8 µM)

Br.Br.Cc1ccc(N2CCN(C)CC2)c2c1CC[C@@H](NC(=O)c1ccc(N3CCOCC3)cc1)C2 [Dihydrobromide, (R)-N-[5-methyl-8-(4-methylpiperazin-1-yl)-1,2,3,4-tetrahydro-2-naphthyl]-4-morpholinobenzamide dihydrobromide]
solubility [2, 4]: 4.6 mg/mL

Cc1ccc(N2CCN(C)CC2)c2c1CC[C@@H](NC(=O)c1ccc(N3CCOCC3)cc1)C2.O=C(O)CO [Glycolate, (R)-N-[5-Methyl-8-(4-methylpiperazin-1-yl)-1,2,3,4-tetrahydro-2-naphthyl]-4-morpholinobenzamide Glycolate]
solubility [2, 4]: > 23.6 mg/mL

Cc1ccc(N2CCN(C)CC2)c2c1CC[C@@H](NC(=O)c1ccc(N3CCOCC3)cc1)C2 [L-Ascorbate, (R)-N-[5-Methyl-8-(4-methylpiperazin-1-yl)-1,2,3,4-tetrahydro-2-naphthyl]-4-morpholinobenzamide L-Ascorbate]
Solubility mg/mL (Solubility in Water at 25° C. for different salts) ([2]; salts): 4.2 mg/mL

C[C@H](O)C(=O)O.Cc1ccc(N2CCN(C)CC2)c2c1CC[C@@H](NC(=O)c1ccc(N3CCOCC3)cc1)C2 [L-Lactate, (R)-N-[5-Methyl-8-(4-methylpiperazin-1-yl)-1,2,3,4-tetrahydro-2-naphthyl]-4-morpholinobenzamide L-Lactate]
solubility ([2]; salts, read-out: Solubility mg/mL (Solubility in Water at 25° C. for different salts)): 18.8 mg/mL

Cc1ccc(N2CCN(C)CC2)c2c1CC[C@@H](NC(=O)c1ccc(N3CCOCC3)cc1)C2 [Salicylate, (R)-N-[5-Methyl-8-(4-methylpiperazin-1-yl)-1,2,3,4-tetrahydro-2-naphthyl]-4-morpholinobenzamide Salicylate]
Solubility mg/mL (Solubility in Water at 25° C. for different salts) ([2]; salts): 0.29 mg/mL
